# Data from ChEMBL document CHEMBL4732144, “Discovery of a true bivalent dopamine D receptor agonist” (Eur J Med Chem, 2021).
# Calls of active or inactive are those of the source. No cut-off for these calls is given here.
# Columns and labels:
# D(2) dopamine receptor [1] = molecular target: T1, D(2) dopamine receptor (Homo sapiens, UniProt P14416); test: Displacement of [3H]raclopride from human D2R isoform 2 stably expressed in HEK293 cell membranes at 1 uM measured after 1 hr by liquid scintillation counting method; settings: Membrane, filed as agonist
# T1 sequence (P14416 whole entry, canonical isoform): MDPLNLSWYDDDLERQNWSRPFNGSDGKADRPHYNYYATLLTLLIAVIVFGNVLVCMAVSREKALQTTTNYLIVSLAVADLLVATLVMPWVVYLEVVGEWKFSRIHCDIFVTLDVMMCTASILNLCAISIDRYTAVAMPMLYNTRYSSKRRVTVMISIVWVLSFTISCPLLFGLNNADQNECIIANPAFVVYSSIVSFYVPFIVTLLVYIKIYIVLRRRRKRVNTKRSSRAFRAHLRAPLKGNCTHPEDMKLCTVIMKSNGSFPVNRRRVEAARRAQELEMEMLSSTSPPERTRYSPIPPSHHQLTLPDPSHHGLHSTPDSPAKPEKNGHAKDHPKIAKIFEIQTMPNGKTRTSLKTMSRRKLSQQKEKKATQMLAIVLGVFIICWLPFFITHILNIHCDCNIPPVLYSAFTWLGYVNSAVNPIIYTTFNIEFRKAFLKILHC
# D(2) dopamine receptor [2] = molecular target: T1, D(2) dopamine receptor; test: Displacement of [3H]raclopride from human D2R isoform 2 stably expressed in HEK293 cell membranes measured after 1 hr by liquid scintillation counting method; parameters: species or system Membrane
# D(2) dopamine receptor [3] = molecular target: T1, D(2) dopamine receptor; test: Displacement of [3H]raclopride from human D2R isoform 2 stably expressed in HEK293 cell membranes measured after 1 hr by liquid scintillation counting method relative to IndBipAlk Ki; settings: Membrane
# D(2) dopamine receptor [4] = molecular target: T1, D(2) dopamine receptor; test: Agonist activity at human D2R isoform 2 stably expressed in HEK293 cells assessed as inhibition of forskolin-induced increase of cAMP accumulation preincubated for 10 mins followed by forskolin addition by Glosensor cAMP reagent based luminescence assay; assay type: functional, cell-based
# D(2) dopamine receptor [5] = molecular target: T1, D(2) dopamine receptor; test: Agonist activity at human D2R isoform 2 stably expressed in HEK293 cells assessed as inhibition of forskolin-induced increase of cAMP accumulation preincubated for 10 mins followed by forskolin addition by Glosensor cAMP reagent based luminescence assay relative to IndBipAlk EC50; assay type: functional, cell-based
# D(2) dopamine receptor [6] = molecular target: T1, D(2) dopamine receptor; test: Displacement of [3H]raclopride from human D2R isoform 2 stably expressed in HEK293 cell membranes measured after 1 hr by liquid scintillation counting method relative to IndAlk Ki; settings: Membrane
# D(2) dopamine receptor [7] = molecular target: T1, D(2) dopamine receptor; test: Agonist activity at human D2R isoform 2 stably expressed in HEK293 cells assessed as inhibition of forskolin-induced increase of cAMP accumulation preincubated for 10 mins followed by forskolin addition by Glosensor cAMP reagent based luminescence assay relative to IndAlk EC50; assay type: functional, cell-based
SMILES,inhibition (D(2) dopamine receptor [1]),Ki (D(2) dopamine receptor [2]),Ratio Ki (D(2) dopamine receptor [3]),EC50 (D(2) dopamine receptor [4]),Ratio EC50 (D(2) dopamine receptor [5]),Ratio Ki (D(2) dopamine receptor [6]),Ratio EC50 (D(2) dopamine receptor [7])
CCCN(CCCCNC(=O)c1ccc(-c2ccc(OCc3cn(CCOCCOCCOCCn4cc(COc5ccc(-c6ccc(C(=O)NCCCCN(CCC)C7Cc8ccccc8C7)cc6)cc5)nn4)nn3)cc2)cc1)C1Cc2ccccc2C1,Active,270 nM,3.6,292 nM,1.1,,
CCCN(CCCCNC(=O)c1ccc(-c2ccc(OCc3cn(CCOCCOCCOCCOCCOCCn4cc(COc5ccc(-c6ccc(C(=O)NCCCCN(CCC)C7Cc8ccccc8C7)cc6)cc5)nn4)nn3)cc2)cc1)C1Cc2ccccc2C1,> 80%,59 nM,16.4,65 nM,4.9,,
CCCN(CCCCNC(=O)c1ccc(-c2ccc(OCc3cn(CCOCCOCCOCCOCCn4cc(COc5ccc(-c6ccc(C(=O)NCCCCN(CCC)C7Cc8ccccc8C7)cc6)cc5)nn4)nn3)cc2)cc1)C1Cc2ccccc2C1,Active,250 nM,3.9,542 nM,0.6,,
CCCN(CCCCc1cn(CCOCCOCCOCCOCCn2cc(CCCCN(CCC)C3Cc4ccccc4C3)nn2)nn1)C1Cc2ccccc2C1,Active,66 nM,,9.4 nM,,2.9,0.4
CCCN(CCCCc1cn(CCOCCOCCOCCOCCOCCn2cc(CCCCN(CCC)C3Cc4ccccc4C3)nn2)nn1)C1Cc2ccccc2C1,Active,48 nM,,3.2 nM,,3.9,1.1
C#CCOc1ccc(-c2ccc(C(=O)NCCCCN(CCC)C3Cc4ccccc4C3)cc2)cc1,,970 nM,,321 nM,,,
C#CCCCCN(CCC)C1Cc2ccccc2C1,,189 nM,,3.4 nM,,,
CCCN(CCCCc1cn(CCOCCOCCOCCn2cc(CCCCN(CCC)C3Cc4ccccc4C3)nn2)nn1)C1Cc2ccccc2C1,Active,73 nM,,7.2 nM,,2.6,0.5
